Assay results as given in ChEMBL document CHEMBL1201862, “PubChem BioAssay data set” (2004).
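Exposure lasted 48 hours, with cells grown in 96-well plates and compounds tested at five concentrations. GI50 marks 50% less growth.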 Calls of active or inactive are those of the source. No stated cut-off is given here; in the data, active = GI50 up to about 1.1 µM and inactive = higher.

How the values were obtained:
Assay in all cases: NCI tumour cell line growth inhibition, 48 h
[1] = test system: HOP-92
[2] = test system: HOP-62
[3] = test system: SF-268
[4] = test system: HCT-15
[5] = test system: SK-MEL-2
[6] = test system: IGROV-1
[7] = test system: M14
[8] = test system: HT-29
[9] = test system: MDA-MB-435
[10] = test system: OVCAR-5
[11] = test system: SF-539
[12] = test system: EKVX
[13] = test system: MDA-N
[14] = test system: KM12
[15] = test system: OVCAR-3
[16] = test system: ACHN
[17] = test system: NCI-H460
[18] = test system: NCI-H522
[19] = test system: CCRF-CEM

Compound | GI50 [1] | GI50 [2] | GI50 [3] | GI50 [4] | GI50 [5] | GI50 [6] | GI50 [7] | GI50 [8] | GI50 [9] | GI50 [10] | GI50 [11] | GI50 [12] | GI50 [13] | GI50 [14] | GI50 [15] | GI50 [16] | GI50 [17] | GI50 [18] | GI50 [19]
Nc1nc(N)c(Cn2ccnc2)c(O)n1 | > 100 µM (inactive) | > 100 µM (inactive) | > 100 µM (inactive) | > 100 µM | > 100 µM (inactive) | > 100 µM (inactive) | > 100 µM (inactive) | > 100 µM (inactive) | > 100 µM (inactive) | > 100 µM (inactive) | > 100 µM (inactive) | > 100 µM (inactive) | > 100 µM (inactive) | > 100 µM (inactive) | > 100 µM (inactive) | > 100 µM (inactive) | > 100 µM (inactive) | > 100 µM (inactive) | 
O=[N+]([O-])c1ccc2sc(/C=N/c3ccccn3)cc2c1 | 69.8 µM (inactive) | > 100 µM (inactive) | 28.5 µM (inactive) | 51.4 µM | > 100 µM (inactive) | 60.4 µM (inactive) | > 100 µM (inactive) | > 100 µM (inactive) | 71.6 µM (inactive) | > 100 µM (inactive) | > 100 µM (inactive) | 69 µM (inactive) | > 100 µM (inactive) | 64.6 µM (inactive) | 41.8 µM (inactive) | 98.6 µM (inactive) | > 100 µM (inactive) | > 100 µM (inactive) | 33.8 µM (inactive)
Cc1nc2c(=O)n(-c3ccccc3)c(=O)n(-c3ccccc3)c2o1 | > 100 µM (inactive) | > 100 µM (inactive) | > 100 µM (inactive) | > 100 µM | > 100 µM (inactive) | > 100 µM (inactive) | > 100 µM (inactive) | > 100 µM (inactive) | > 100 µM (inactive) | > 100 µM (inactive) | > 100 µM (inactive) | > 100 µM (inactive) | > 100 µM (inactive) | > 100 µM (inactive) | > 100 µM (inactive) | > 100 µM (inactive) | > 100 µM (inactive) | > 100 µM (inactive) | > 100 µM (inactive)
CC(NC1=CC(=O)c2cccnc2C1=O)C(O)c1ccccc1 (stereo not drawn) | 9.73 µM (inactive) | 1.26 µM (inactive) | 2.36 µM (inactive) | 1.37 µM | 1.5 µM (inactive) | 1.28 µM (inactive) | 1.5 µM (inactive) | 2.86 µM (inactive) | 0.783 µM (active) | 1.79 µM (inactive) | 1.84 µM (inactive) | 6.04 µM (inactive) | 0.57 µM (active) | 3.97 µM (inactive) | 1.64 µM (inactive) | 2.05 µM (inactive) | 0.733 µM (active) | 1.42 µM (inactive) | 4.02 µM (inactive)
Clc1ccc(C2=Cc3nc2c(-c2ccccc2)c2ccc([nH]2)c(-c2ccccc2)c2nc(c(-c4ccccc4)c4ccc([nH]4)c3-c3ccccc3)C=C2)cc1 | 61 µM (inactive) | > 62.5 µM (inactive) | > 62.5 µM (inactive) | > 62.5 µM | > 62.5 µM (inactive) | > 62.5 µM (inactive) | > 62.5 µM (inactive) | > 62.5 µM (inactive) | > 62.5 µM (inactive) | > 62.5 µM (inactive) | > 62.5 µM (inactive) | > 62.5 µM (inactive) | > 62.5 µM (inactive) | > 62.5 µM (inactive) | > 62.5 µM (inactive) | > 62.5 µM (inactive) | > 62.5 µM (inactive) | > 62.5 µM (inactive) | > 62.5 µM (inactive)
COc1ccc(Cc2ccc3nc(O)cc(C)c3c2)cc1S(=O)(=O)O | > 100 µM (inactive) | > 100 µM (inactive) | > 100 µM (inactive) | > 100 µM | > 100 µM (inactive) | > 100 µM (inactive) | > 100 µM (inactive) | > 100 µM (inactive) | > 100 µM (inactive) | > 100 µM (inactive) | > 100 µM (inactive) | > 100 µM (inactive) | > 100 µM (inactive) | > 100 µM (inactive) | > 100 µM (inactive) | > 100 µM (inactive) | > 100 µM (inactive) | > 100 µM (inactive) | > 100 µM (inactive)
